{
  "source": "paper PMC5026937",
  "about": "(Antiviral research, 2016)",
  "tested_on": "A/Switzerland/9715293/2013 (H3N2)",
  "assay_type": "cell-based, Influenza A virus",
  "data": [
    {"smiles": "CCC(CC)O[C@@H]1C=C(C(=O)O)C[C@H](N)[C@H]1NC(C)=O", "note": "[Oseltamivir carboxylate, oseltamivir carboxylate]", "values": [
      {"measurement": "EC50 increase on serial passage", "result": "more than ten-fold"}
    ]}
  ]
}
